SMILES strings stand for the structures.

recombinant His-tag Wip1(2-420) protein (amino acids #2-420), sequence (O15297 2-420): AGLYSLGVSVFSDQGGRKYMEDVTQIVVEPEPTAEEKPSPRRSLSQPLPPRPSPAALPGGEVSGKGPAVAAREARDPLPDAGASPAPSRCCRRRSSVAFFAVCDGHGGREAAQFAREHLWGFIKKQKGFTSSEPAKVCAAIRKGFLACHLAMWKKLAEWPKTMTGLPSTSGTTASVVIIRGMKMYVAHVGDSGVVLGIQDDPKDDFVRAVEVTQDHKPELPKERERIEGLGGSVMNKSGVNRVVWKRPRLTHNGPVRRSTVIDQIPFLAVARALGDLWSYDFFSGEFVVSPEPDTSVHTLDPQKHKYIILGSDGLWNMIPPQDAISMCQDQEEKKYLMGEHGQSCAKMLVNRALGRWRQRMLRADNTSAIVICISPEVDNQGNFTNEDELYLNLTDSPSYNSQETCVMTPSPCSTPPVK

This assay has as its target recombinant His-tag Wip1(2-420) protein (amino acids #2-420) (Homo sapiens (Human), UniProt O15297). Briefly: Wip1(2-420) phosphatase enzyme FDP assay. In kind it is biochemical. The conditions noted are these: fluorescein diphosphate (FDP) substrate, RT 2 hours, fluorescence Ex485/Em535; read-out: WIP1 (Truncated 2-420) FDP Assay: IC50. The protocol: The Human Wip1 (2-420, aa 2-420) or Wip1 full length (aa 1-605) DNA sequence was codon optimized and synthesized by Genscript for insect cell expression. The open reading frame of Wip1(2-420) with a N-terminal-His6 affinity tag followed by a TEV cleavage site was subcloned sites into the pFastBac1 expression vector. The recombinant bacmid DNA was transfected in Sf9 insect cells for baculovirus production. After 72 hours infection, the Sf9 cells were harvested by centrifugation and resuspended in lysis buffer containing 50 mM Tris/HCl, pH 8.0, 500 mM NaCl, 20% glycerol, Benzonase 0.5% CHAPS and Roche cOmplete™ EDTA free protease inhibitors. Cells were disrupted with microfluidizer and the debris was removed by centrifugation at 185,000 g for 1 hour. The supernatant was subjected to HisTrap FF for affinity purification. Proteins were eluted with a linear gradient of 0-500 mM imidazole in HisTrap buffer containing 50 mM Tris/HCl, pH 8.0, 500 mM NaCl and 20% glycerol, 0.05% CHAPS. The eluted protein was dialyzed against dialysis buffer (20 mM MES, 100 mM NaCl, 20% glycerol, 0.5 mM TCEP, 0.05% CHAPS) followed purification via HiTrap SP HP column. The protein was eluted with a gradient of 100 mM-2 M NaCl in dialysis buffer. His6-[…] was finally concentrated and loaded onto a size-exclusion column (NiLoad 16/600 Superdex 200 pg, GE Healthcare) pre-equilibrated with 50 mM MOPS (pH 7.5), 200 mM NaCl, 20% glycerol, 1 mM TCEP, 0.05% CHAPS and 0.1 mM EGTA. The peak fractions containing purified Nis6-Wip1(2-420) were pooled and concentrated to 1.0 mg/mL and flash frozen at −80° C.
Wip1 Length and Wip1(2-420) Phosphatase Enzyme FDP Assays.
Test compounds (252 mM stock in DMSO) were diluted 3 folds in series in DMSO and 1.2 μl per well were added into 384-well polypropylene black plates (Nunc). Twelve μl per well of Assay Buffer (100 mM NaCl, 50 mM MOPS, pH 7.5, 0.8 mM CHAPS, 0.1 mM EGTA, 30 mM MgCl2, 0.3 mM TCEP, 0.2 mg/mL BSA) was added followed by […] per well of 50.4 nM recombinant His-tag Wip1 full length protein (amino acids #1-605) or recombinant His-tag Wip1(2-420) protein (amino acids #2-420) in Assay Buffer and the plate was incubated at RT (22° C.) for 5 min. Ten mM of fluorescein diphosphate (FDP) in DMSO was diluted to […] in Assay Buffer and […] per well was added to the plate and incubated at RT (22° C.) for 2 hours. […] per well of 64.1 mM EDTA in water were added to stop the enzyme reaction. The plate was centrifuged at 1,200 rpm (Eppendorf 5810R Plate centrifuge) for 1 minute and fluorescence intensity (Ex485/Em535) was measured on Perkin Elmer Victor Reader. EC50 values were calculated using either Prism (GraphPad) or ActivityBase software (IDBS), The IC50 results are provided in Table M.
Consider `C[C@H](Nc1cc(Cl)cnc1CO)c1ccc(C(=O)N[C@@H](CC2CCCC2)C(=O)NC2CC2)s1` [Compound 105, (2S)-2-({5-[(1S)-1-{[5-chloro-2-(hydroxymethyl)129yridine-3-yl]amino}ethyl]thiophen-2-yl}formamido)-3-cyclopentyl-N-cyclopropylpropanamide], for which the IC50 is 0.018 µM.

In the case of `Cc1ncc(Cl)cc1N[C@H](C)c1ccc(C(=O)N[C@@H](CC2CCCC2)C(=O)N[C@@H]2CC2(F)F)s1` [Compound 22, (2S)-2-({5-[(1R)-1-[(5-chloro-2-methylpyridin-3-yl)amino]ethyl]thiophen-2-yl}formamido)-3-cyclopentyl-N-[(1R)-2,2-difluorocyclopropyl]propanamide], the IC50 worked out at 0.314 µM. For the compound `Cc1ncc(Cl)cc1N[C@@H](C)c1ccc(C(=O)N[C@@H](CC2CCCC2)C(=O)NC2CCC(C#N)C2)s1` (stereo partly drawn) [Compound 115, (2S)-2-({5-[(1S)-1-[(5-chloro-2-methylpyridin-3-yl)amino]ethyl]thiophen-2-yl}formamido)-N-(3-cyanocyclopentyl)-3-cyclopentylpropanamide], the IC50 stood at 0.011 µM. Turning to `C[C@@H](Nc1cc(Cl)cnc1CO)c1ccc(C(=O)N[C@@H](CC2CCCC2)C(=O)NC2CC2)s1` [Compound 106, (2S)-2-({5-[(1R)-1-{[5-chloro-2-(hydroxymethyl)129yridine-3-yl]amino}ethyl]thiophen-2-yl}formamido)-3-cyclopentyl-N-cyclopropylpropanamide], the IC50 is 0.472 µM. As to `C[C@H](Nc1cc(Cl)cnc1C(F)(F)F)c1ccc(C(=O)N[C@@H](CC2CCCC2)C(=O)NC2CC2)s1` [Compound 189, (2S)-2-({5-[(1S)-1-{[5-chloro-2-(trifluoromethyl)pyridin-3-yl]amino}ethyl]thiophen-2-yl}formamido)-3-cyclopentyl-N-cyclopropylpropanamide], the IC50 stood at 0.01 µM. On to `C[C@@H](Nc1cc(Cl)nc2ccnn12)c1ccc(C(=O)N[C@@H](CC2CCCC2)C(=O)NC2CC2)s1` [Compound 259, (2S)-2-({5-[(1R)-1-({5-chloropyrazolo[1,5-a]pyrimidin-7-yl}amino)ethyl]thiophen-2-yl}formamido)-3-cyclopentyl-N-cyclopropylpropanamide], for which the IC50 amounted to 0.013 µM. For `C[C@H](Nc1cccc(Cl)c1)c1ncc(C(=O)N[C@@H](CC2CCCC2)C(=O)NC2CC2)s1` [Compound 124, (2S)-2-({2-[(1S)-1-[(3-chlorophenyl)amino]ethyl]-1,3-thiazol-5-yl}formamido)-3-cyclopentyl-N-cyclopropylpropanamide], the IC50 was found to be 0.905 µM. Next, `Cc1ncc(Cl)cc1N[C@H](c1ccc(C(=O)N[C@@H](CC2CCCC2)C(=O)NC23CC(C2)C3)s1)C(F)(F)F` [Compound 187, (2S)-N-{bicyclo[1.1.1]pentan-1-yl}-2-({5-[(1S)-1-[(5-chloro-2-methylpyridin-3-yl)amino]-2,2,2-trifluoroethyl]thiophen-2-yl}formamido)-3-cyclopentylpropanamide]: 0.037 µM; `Cc1ncc(Cl)cc1N[C@@H](C)c1ccc(C(=O)N[C@@H](CC2CCCC2)C(=O)NC2CCc3ncccc3C2)s1` (stereo partly drawn) [Compound 169, (2S)-2-({5-[(1S)-1-[(5-chloro-2-methylpyridin-3-yl)amino]ethyl]thiophen-2-yl}formamido)-3-cyclopentyl-N-(5,6,7,8-tetrahydroquinolin-6-yl)propanamide]: 0.009 µM; `Cc1ncc(Cl)cc1N[C@@H](C)c1ccc(C(=O)N[C@@H](CC23CCC(CC2)CC3)C(=O)NC2CC2)s1` [Compound 256, (2S)-3-{bicyclo[2.2.2]octan-1-yl}-2-({5-[(1S)-1-[(5-chloro-2-methylpyridin-3-yl)amino]ethyl]thiophen-2-yl}formamido)-N-cyclopropylpropanamide]: 0.006 µM.

For the compound `C[C@@H](c1ccc(C(=O)N[C@@H](CC2CCCC2)C(=O)NC2CC2)s1)N1CCCc2ccc(Cl)cc21` [Compound 248, (2S)-2-({5-[(1S)-1-(7-chloro-1,2,3,4-tetrahydroquinolin-1-yl)ethyl]thiophen-2-yl}formamido)-3-cyclopentyl-N-cyclopropylpropanamide], the IC50 was determined as 0.016 µM. Next, `CC[C@@H](Nc1cc(Cl)cnc1C)c1ccc(C(=O)N[C@@H](CC2CCCC2)C(=O)NC23CC(C#N)(C2)C3)s1` [Compound 81, (2S)-2-({5-[(1R)-1-[(5-chloro-2-methylpyridin-3-yl)amino]propyl]thiophen-2-yl}formamido)-N-{3-cyanobicyclo[1.1.1]pentan-1-yl}-3-cyclopentylpropanamide]: 0.693 µM; `Cc1ncc(Cl)cc1N[C@@H](C)c1ccc(C(=O)N[C@H](C(=O)NC23CC(C2)C3)C(C)(C)C)s1` [Compound 246, (2S)-N-{bicyclo[1.1.1]pentan-1-yl}-2-({5-[(1S)-1-[(5-chloro-2-methylpyridin-3-yl)amino]ethyl]thiophen-2-yl}formamido)-3,3-dimethylbutanamide]: 2.21 µM; `Cc1ncc(Cl)cc1N[C@@H](C)c1ccc(C(=O)N[C@@H](CC2CCCC2)C(=O)Nc2ccc3ncc(C#N)cc3c2)s1` [Compound 148, (2S)-2-({5-[(1S)-1-[(5-chloro-2-methylpyridin-3-yl)amino]ethyl]thiophen-2-yl}formamido)-N-(3-cyanoquinolin-6-yl)-3-cyclopentylpropanamide]: 0.006 µM.

For `Cc1ncc(Cl)cc1N[C@@H](C)c1ccc(C(=O)N[C@@H](C(=O)NC2CC2)C(C)(C)C)s1` [Compound 234, (2R)-2-({5-[(1S)-1-[(5-chloro-2-methylpyridin-3-yl)amino]ethyl]thiophen-2-yl}formamido)-N-cyclopropyl-3,3-dimethylbutanamide], the concentration for half-maximal inhibition (IC50) is > 10 µM. Next, `Cc1ncc(Cl)cc1N[C@@H](C)c1ccc(C(=O)N[C@@H](CC2CCCC2)C(=O)Nc2cc(N)ccn2)s1` [Compound 150, (2S)-N-(4-aminopyridin-2-yl)-2-({5-[(1S)-1-[(5-chloro-2-methylpyridin-3-yl)amino]ethyl]thiophen-2-yl}formamido)-3-cyclopentylpropanamide]: 0.008 µM. Regarding `Cc1ncc(Cl)cc1N[C@@H](C)c1ccc(C(=O)N[C@@H](CC2CCCC2)C(=O)Nc2ccc3cnccc3c2)s1` [Compound 195, (2S)-2-({5-[(1S)-1-[(5-chloro-2-methylpyridin-3-yl)amino]ethyl]thiophen-2-yl}formamido)-3-cyclopentyl-N-(isoquinolin-6-yl)propanamide], the IC50 is 0.003 µM. The figure for `CC(Nc1cc(Cl)cnc1C(N)=O)c1ccc(C(=O)N[C@@H](CC2CCCC2)C(=O)Nc2cnn(C)c2)s1` (stereo partly drawn) [Compound 173, 5-chloro-3-{[1-(5-{[(1S)-2-cyclopentyl-1-[(1-methyl-1H-pyrazol-4-yl)carbamoyl]ethyl]carbamoyl}thiophen-2-yl)ethyl]amino}pyridine-2-carboxamide] is 0.008 µM; for `Cc1ncc(Cl)cc1N[C@@H](C)c1ccc(C(=O)N[C@@H](CC2CCCC2)C(=O)Nc2ccnc(Cl)c2)s1` [Compound 143, (2S)-2-({5-[(1S)-1-[(5-chloro-2-methylpyridin-3-yl)amino]ethyl]thiophen-2-yl}formamido)-N-(2-chloropyridin-4-yl)-3-cyclopentylpropanamide] it is 0.005 µM; for `Cc1ncc(Cl)cc1N[C@@H](C)c1ccc(C(=O)N[C@@H](CC2CCCC2)C(=O)Nc2ccc3ncc(F)cc3c2)s1` [Compound 178, (2S)-2-({5-[(1S)-1-[(5-chloro-2-methylpyridin-3-yl)amino]ethyl]thiophen-2-yl}formamido)-3-cyclopentyl-N-(3-fluoroquinolin-6-yl)propanamide] it is 0.005 µM.

In the case of `Cc1ncc(Cl)cc1N[C@@H](C)c1ccc(C(=O)N[C@@H](C[C@@H]2CCC3CC32)C(=O)NC23CC(C2)C3)s1` (stereo partly drawn) [Compound 245, (2S)-N-{bicyclo[1.1.1]pentan-1-yl}-3-[(2S)-bicyclo[3.1.0]hexan-2-yl]-2-({5-[(1S)-1-[(5-chloro-2-methylpyridin-3-yl)amino]ethyl]thiophen-2-yl}formamido)propanamide], the IC50 is 0.01 µM.

A word on the IC50: it is the concentration that gives 50% inhibition.

Source of the values: US20240116910A1, “Heterocycles as WIP1 Inhibitors” (PMV Pharmaceuticals, Inc., priority 2022, published 2024).
